What was measured:
[1] = Singlet oxygen phosphorescence from protoporphyrin IX dimethyl ester in air saturated CDCl3, 532 nm; assay type: physicochemical; details: MePPIX 25 μM
Description: Singlet oxygen phosphorescence experiments were performed to investigate if the large differences in triplet quenching rate constants have an impact on the observed singlet oxygen yields. The dimethyl ester derivative of PPIX (MePPIX, Formula IV(c)) was selected as sensitizer, because of better solubility in a solvent with long singlet oxygen lifetime (CDCl3).
The excited state properties of protoporphyrin IX should not be effected by the methyl ester functionality. Air saturated CDCl3 of MePPIX were excited with a pulsed Nd-YAG laser with visible light at 532 nm, where the stabilizers are mostly transparent. […] The lack of singlet oxygen suppression is consistent with the lack of observable quenching of singlet or triplet excited states of PPIX by alkoxy crylene.

[2] = UV and visible light absorption spectra of stabilizers; assay type: physicochemical; details: acetonitrile
Description: UV and visible light absorption spectra were recorded to investigate to what extent each stabilizer itself absorbs UV light. […] Protoporphyrin IX has weak absorption bands above 450 nm, where the two compounds are transparent (FIG. 2). The compound with the oxygen bridge (Formula II(d)(1)) caused a bathocromic shift of the UV absorption of the lowest energy band. The compound with the sulfur bridge (Formula II(e)(1)) shifted the lowest energy band further into the visible region.

λmax [2] [nm]	extinction coefficient (molar absorptivity) ([2]; at λmax)	Compound	suppression of singlet oxygen generation [1]
–	–	COC(=O)C(C#N)=C1c2ccccc2C(=O)c2ccccc21 [Formula II(a)(1)]	largest suppression
334	16,200 M −1 cm −1	COC(=O)C(C#N)=C1c2ccccc2-c2ccccc21 [Formula I(a)(1)]	–
